Results reported in patent US6656962B2, “Use of amino-isoxazolidone compounds for improvement of lexical priming” (Pharmacia Corporation, priority 1994, dated 2003).

How the values were obtained:
[1] = target: T1, NMDA receptor complex ([3H]TCP binding) (Rattus norvegicus, UniProt P35439); assay: Assay B: TCP Modulation Assay (stimulation of [3H]TCP binding to synaptic plasma membranes); format: biochemical
T1 construct: Triton X-100 washed synaptic plasma membranes (SPM) prepared from rat forebrain; from tissue; host or cells: rat forebrain synaptic plasma membranes (male Sprague-Dawley, 30-45 days old), Triton X-100 washed
Experimental: [3H]TCP binding was performed using Triton X-100 washed synaptic plasma membranes (SPM) prepared from rat forebrain (30-45 day old, male SpragueDawley; Sasco, St. Charles, Mo.) as described previously [J. W. Thomas, W. F. Hood, J. B. Monahan, P. C. Contreras and T. L. O'Donohue, Brain Res., 442, 396-398 (1988)]. […] The samples were then filtered through glass fiber filters (Schleicher and Schuell #32) which were pretreated with 0.05% (v/v) polyethylenimine. The filters were washed and the radioactivity quantitated by liquid scintillation spectrometry. […] The EC50 values for the stimulation of [3H]TCP binding were determined using a four parameter logistic regression analysis.

[2] = system: implicit memory (priming) in Alzheimer patients; assay: Assay C: Implicit Memory Paradigm (word identification test, priming) in Alzheimer patients; format: in vivo, human; details: 15 mg twice daily
Description: In this test, subjects identify words presented in a visually degraded or masked format in which only parts of each letter are shown. Subjects view several lists of these degraded words over a period of three days, some of which are repeated from day-to-day and some that are new. Learning, or what is referred to as “priming”, is shown on this test when subjects identify a larger number of repeated or old words than new words. […] The diagnosis of probable Alzheimer's disease was made according to the criteria defined by the National Institute on Neurological Disorders and Stroke Work Group [G. McKhann et al, Neurology, 34, 939-944 (1984)]. This diagnosis was based on clinical evaluation that included neuropsychological assessment, laboratory blood screening, neurolgical examination, and either a CT or MRI scan. The criteria for entry into the study was Mini-mental State Examination score between 12 and 24 inclusive [M. Folstein et al, J. Psych. Res., 12, 189-198 (1975)], Global Deterioration Scale score between 3 and 5 inclusive [B. Reisberg et al, Am. J. Psych., 139, 1136-1139 (1982)], Modified […], ischemic score of 4 or less [G. W. Small et al, J. Clin. Psych., 46, 514-517 […]], and Hamilton Psychiatric Rating Scale for Depression score of 17 or less [M. Hamilton, Neurology and Neurosurgery, 23, 56-62 (1960)]. Patients with medical, neurological, or psychiatric illnesses other than Alzheimer's disease that could account for the abnormal mental status were excluded. […] The eligibility of patients was assessed during a 28-day period before the study began. […] All unused medication was returned and counted to check for compliance in taking the drug. […] The total increase in priming was calculated by first deriving the amount of priming that occurred on each trial (i.e., difference in the proportion of old and new words identified). […] Priming is not calculated on trial 1 because from the patient's perspective there are no old words on trial 1; the words begin to repeat on the second trial.

[3] = system: recognition memory and attention in Alzheimer patients; details: Alzheimer's disease patients, Searle Protocol NC6-93-06-009; cited from earlier work
[4] = oral, tenth week of treatment, Alzheimer patients

| Compound | Kd ([1]; basal conditions) [nM] | effect on glycine stimulation of [3H]TCP binding ([1]; in the presence of glycine (0.1-0.6 μM)) | patients who improved their priming scores from trial 2 to trial 9 [2, 4] [%] | total increase in priming vs placebo (post-hoc Scheffe test) [2, 4] | linear trend in priming across trials ([2]; trials 2 to 9, Alzheimer patients) | performance on recognition memory and attentional tests [3] |
| --- | --- | --- | --- | --- | --- | --- |
| c1csc(C2(N3CCCCC3)CCCCC2)c1 [[3H]TCP] | 44 | – | – | – | – | – |
| NC1CONC1=O (single isomer, unassigned) [D-cycloserine, 4-amino-3-isoxazolidone] | – | reduces the maximal level of glycine stimulation | 68 | significant difference in performance | significant linear trend across trials | did not improve performance |
